Patent publication US7968526B2, “Antisense oligonucleotides directed to ribonucleotide reductase R2 and uses thereof in the treatment of cancer” (Lorus Therapeutics Inc., priority 2003, dated 2011)

How the values were obtained:
[1] = system: SK-OV-3 human ovary adenocarcinoma cells; test: SK-OV-3 ovary tumour xenograft in CD-1 nude mice, combination with taxol or cisplatin (1.8); type: in vivo, human cells in mice; conditions: SEQ ID NO:1 10 mg/kg i.v. every other day 17 times
Protocol: After 52 days the mice were sacrificed and the tumours weighed. […] Mitoxantrone was administered intravenously once at the beginning of the treatments at a dose of 2 mg/kg (FIG. 4A) or once a week for four weeks at a reduced dose of 0.8 mg/kg (FIG. 4B). All treatments were stopped at day 50 (FIG. 4A) or 48 (FIG. 4B), respectively. […] Mitoxantrone was administered intravenously once at the beginning of the treatments at a dose of 2 mg/kg (FIG. 5A) or once a week for four weeks at a reduced dose of 0.8 mg/kg (FIG. 5B). All treatments were stopped at day 42 (FIG. 5A) or 38 (FIG. 5B), respectively. […] A2058 is a metastatic melanoma cell line. […] All treatments were stopped at day 24. […] Taxol was administered intravenously once a week at a dose of 10 mg/kg for three (FIG. 7A) or four weeks (FIG. 7C). Doxorubicin was administered intravenously once a week at a dose of 5 mg/kg for first three weeks (FIG. 7A) or for two weeks (FIG. 7C). All treatments were stopped at day 33 (FIG. 7A) or at day 26 (FIG. 7C), respectively. […] In FIG. 7C, antitumour activities were estimated by the inhibition of tumour volume, which was measured with calipers. Each point represents mean tumour volume calculated from 10 animals per experimental group. […] Taxol was administered intravenously once a week for first three weeks and intraperitoneally once a week for next two weeks at a dose of 10 mg/kg. Cisplatin was administered intravenously once a week for first three weeks and intraperitoneally once a week for next two weeks at a dose of 4 mg/kg. All treatments were stopped at day 40. Antitumour activities were estimated by the inhibition of tumour volume, which was measured with caliper. Each point represents mean tumour volume calculated from 9 animals per experimental group.

[2] = Phase I study of SEQ ID NO:1 by continuous intravenous infusion in patients with advanced cancer: toxicity and response
Protocol: (§1) Pharmacokinetic parameters were assessed. SEQ ID NO:1 was administered using a portable infusion pump in cycles of 21 days CVI followed by one week of rest. […] Doses were doubled in cohorts of 1-3 patients until the appearance of Gr 1 toxicity, with subsequent escalation of 20-30% in cohorts of 3 patients. DLT was defined as Gr 4 neutropenia lasting 3 days or with fever; Gr 4 thrombocytopenia (T) or Gr 3 T with Gr 1 bleeding; or Gr 3 non-hematologic toxicity.

[3] = Phase I study of SEQ ID NO:1: pharmacokinetics; conditions: patients
Protocol: On Day 1 a heparinized blood sample was collected at baseline and then at 1, 2, 3, 4 and 6 hours after start of infusion. On Days 8 and 15, a single heparinized sample was taken. On Day 22 a heparinized blood sample was collected prior to the end of infusion and at 0.25, 0.5, 1, 2, 4 and 6 hours following the end of infusion. Plasma was decanted and stored at −70° C.
as §1

[4] = Cycle 1, 18.5 mg/m^2/day 21 day CVI, 2 patients
[5] = Cycle 1, 74 mg/m^2/day 21 day CVI, 1 patient
[6] = Cycle 1, 148 mg/m^2/day 21 day CVI, 6 patients
[7] = Cycle 1, 185 mg/m^2/day 21 day CVI, 9 patients
[8] = Cycle 1, 222 mg/m^2/day 21 day CVI, 7 patients

5′-GGCTAAATCGCTCCACCAAG-3′ (all phosphorothioate, sugars by position and methylation of C not given here) [SEQ ID NO: 1]
tumour volume data as percentage of saline control ([1]; SK-OV-3 (ovary), CD-1, Taxol 10 mg/kg weekly, Cisplatin 4 mg/kg weekly): 42%
Antitumour effect (tumour volume, FIG. 8) ([1]; SK-OV-3, CD-1 nude mice, taxol 10 mg/kg, cisplatin 4 mg/kg weekly): significant delay of tumour growth compared to saline control
DLT: Gr 3 fatigue ([2]; 148 mg/m^2/day): 1/6
Tolerability at the recommended phase II dose ([2]; 185 mg/m^2/day): well tolerated by 11 patients
DLT: Gr 4 transaminase elevation ([2]; 222 mg/m^2/day): 2/6
recommended phase II dose ([2]; 21 days CVI followed by one week of rest): 185 mg/m^2/day
maximum tolerated dose (MTD) ([2]; 21 days CVI followed by one week of rest, patients with advanced malignancies): 222 mg/m^2/day
No. of Patients with Grade of Toxicity: Anorexia Grade 1 [2, 4]: 1
No. of Patients with Grade of Toxicity: Fatigue Grade 1 [2, 4]: 1
No. of Patients with Grade of Toxicity: Anorexia Grade 1 [2, 5]: 1
No. of Patients with Grade of Toxicity: Fatigue Grade 1 [2, 5]: 1
No. of Patients with Grade of Toxicity: Nausea Grade 1 [2, 5]: 1
No. of Patients with DLT (Table 10) [2, 6]: 1
No. of Patients with Grade of Toxicity: Anorexia Grade 1 [2, 6]: 1
No. of Patients with Grade of Toxicity: Anorexia Grade 2 [2, 6]: 1
No. of Patients with Grade of Toxicity: Fatigue Grade 1 [2, 6]: 1
No. of Patients with Grade of Toxicity: Fatigue Grade 2 [2, 6]: 1
No. of Patients with Grade of Toxicity: Fatigue Grade 3 (*DLT) [2, 6]: 1*
No. of Patients with Grade of Toxicity: Nausea Grade 2 [2, 6]: 1
No. of Patients with Grade of Toxicity: Neutropenia Grade 3 [2, 6]: 1
No. of Patients with Grade of Toxicity: Anorexia Grade 1 [2, 7]: 2
No. of Patients with Grade of Toxicity: Fatigue Grade 1 [2, 7]: 3
No. of Patients with Grade of Toxicity: Fatigue Grade 2 [2, 7]: 2
No. of Patients with Grade of Toxicity: Nausea Grade 1 [2, 7]: 3
No. of Patients with DLT (Table 11) [2, 8]: 2
No. of Patients with Grade of Toxicity: Anemia Grade 2 [2, 8]: 2
No. of Patients with Grade of Toxicity: Anorexia Grade 2 [2, 8]: 1
No. of Patients with Grade of Toxicity: Bilirubin Grade 2 [2, 8]: 1
No. of Patients with Grade of Toxicity: Bilirubin Grade 4 (*DLT) [2, 8]: 1*
No. of Patients with Grade of Toxicity: Fatigue Grade 1 [2, 8]: 3
No. of Patients with Grade of Toxicity: Fatigue Grade 2 [2, 8]: 1
No. of Patients with Grade of Toxicity: Nausea Grade 1 [2, 8]: 3
No. of Patients with Grade of Toxicity: Neutropenia Grade 2 [2, 8]: 1
No. of Patients with Grade of Toxicity: Rash Grade 2 [2, 8]: 1
No. of Patients with Grade of Toxicity: Transaminases Grade 2 [2, 8]: 1
No. of Patients with Grade of Toxicity: Transaminases Grade 4 (*DLT) [2, 8]: 2*
Hematologic toxicity ([2]; doses 18.5 to 222 mg/m^2/day): mild
Number of DLTs observed ([2]; doses 18.5 to 222 mg/m^2/day): Three DLTs were observed in 25 patients assessable for toxicity
Other serious toxicities: Gr 3 non-neutropenic infection ([2]; doses 18.5 to 222 mg/m^2/day): 2 patients
Other serious toxicities: bowel obstruction ([2]; doses 18.5 to 222 mg/m^2/day): 1 patient
common (Gr 1-2) non-hematologic toxicities: anorexia ([2]; doses 18.5 to 222 mg/m^2/day): 42%
common (Gr 1-2) non-hematologic toxicities: fatigue ([2]; doses 18.5 to 222 mg/m^2/day): 69%
common (Gr 1-2) non-hematologic toxicities: nausea ([2]; doses 18.5 to 222 mg/m^2/day): 38%
Tumour response: stable disease ([2]; patients with advanced cancer, after 2 cycles): Four patients had stable disease (SD) after 2 cycles
AUC, mean (coefficient of variation) ([3]; 37 mg/m^2/day CVI): 7.54 (141)^$ μg · hr/ml
Clearance ([3]; 37 mg/m^2/day CVI): 595 L/m^2/day
Cmax, mean (coefficient of variation) ([3]; 37 mg/m^2/day CVI): 0.09 (141) μg/ml
Css, mean (coefficient of variation) ([3]; 37 mg/m^2/day CVI): 0.03 (141) μg/ml
AUC, mean (coefficient of variation) ([3]; 74 mg/m^2/day CVI): 15.5 (141) μg · hr/ml
Cmax, mean (coefficient of variation) ([3]; 74 mg/m^2/day CVI): 0.61 (141) μg/ml
AUC, mean (coefficient of variation) ([3]; 148 mg/m^2/day CVI): 426 (87) μg · hr/ml
Clearance, mean (coefficient of variation) ([3]; 148 mg/m^2/day CVI): 244 (90) L/m^2/day
Cmax, mean (coefficient of variation) ([3]; 148 mg/m^2/day CVI): 2.2 (41) μg/ml
Css, mean (coefficient of variation) ([3]; 148 mg/m^2/day CVI): 0.77 (94) μg/ml
T1/2, mean (coefficient of variation) ([3]; 148 mg/m^2/day CVI): 0.79 (25) hr
AUC, mean (coefficient of variation) ([3]; 185 mg/m^2/day CVI): 340 (67) μg · hr/ml
Clearance, mean (coefficient of variation) ([3]; 185 mg/m^2/day CVI): 558 (119) L/m^2/day
Cmax, mean (coefficient of variation) ([3]; 185 mg/m^2/day CVI): 2.15 (57) μg/ml
Css, mean (coefficient of variation) ([3]; 185 mg/m^2/day CVI): 0.63 (98) μg/ml
T1/2, mean (coefficient of variation) ([3]; 185 mg/m^2/day CVI): 2.74 (171) hr
AUC, mean (coefficient of variation) ([3]; 222 mg/m^2/day CVI): 380 (94) μg · hr/ml
Clearance, mean (coefficient of variation) ([3]; 222 mg/m^2/day CVI): 483 (161) L/m^2/day
Cmax, mean (coefficient of variation) ([3]; 222 mg/m^2/day CVI): 2.98 (99) μg/ml
Css, mean (coefficient of variation) ([3]; 222 mg/m^2/day CVI): 1.24 (87) μg/ml
T1/2, mean (coefficient of variation) ([3]; 222 mg/m^2/day CVI): 1.43 (46) hr
mean steady-state plasma concentration ([3]; phase II dose (185 mg/m^2/day), preliminary analysis): 0.6 µg/mL
t1/2 ([3]; preliminary analysis): about 2 hrs
